Measurements: PubChem BioAssay (NCI)
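Growth conditions: 96-well plates. Treatment: test compound, 48 hours, 5 concentrations. Analysis: linear interpolation between bracketing concentrations; unreached endpoints set to highest concentration. Definition used: TGI = concentration required for complete inhibition of growth.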

What was measured:
Assay in all cases: DTP human tumour cell line panel, 48 h
786-0 renal = tested on: 786-0 renal
A498 renal = tested on: A498 renal
A549 NSCLC = tested on: A549 NSCLC
ACHN renal = tested on: ACHN renal
BT-549 breast = tested on: BT-549 breast
CAKI-1 renal = tested on: CAKI-1 renal
CCRF-CEM leukemia = tested on: CCRF-CEM leukemia
COLO 205 colon = tested on: COLO 205 colon
DU-145 prostate = tested on: DU-145 prostate
EKVX NSCLC = tested on: EKVX NSCLC
HCC-2998 colon = tested on: HCC-2998 colon
HCT-116 colon = tested on: HCT-116 colon
HCT-15 colon = tested on: HCT-15 colon
HL-60(TB) leukemia = tested on: HL-60(TB) leukemia
HOP-92 NSCLC = tested on: HOP-92 NSCLC
HS 578T breast = tested on: HS 578T breast
HT29 colon = tested on: HT29 colon
IGROV1 ovarian = tested on: IGROV1 ovarian
K-562 leukemia = tested on: K-562 leukemia
KM12 colon = tested on: KM12 colon
LOX IMVI melanoma = tested on: LOX IMVI melanoma
M14 melanoma = tested on: M14 melanoma
MALME-3M melanoma = tested on: MALME-3M melanoma
MCF7 breast = tested on: MCF7 breast
MDA-MB-231 breast = tested on: MDA-MB-231 breast
MDA-MB-435 = tested on: MDA-MB-435
MDA-N = tested on: MDA-N
MOLT-4 leukemia = tested on: MOLT-4 leukemia
NCI-H226 lung = tested on: NCI-H226 lung
NCI-H23 lung = tested on: NCI-H23 lung
NCI-H460 lung = tested on: NCI-H460 lung
NCI-H522 lung = tested on: NCI-H522 lung
NCI/ADR-RES ovarian = tested on: NCI/ADR-RES ovarian
OVCAR-3 ovarian = tested on: OVCAR-3 ovarian
OVCAR-4 ovarian = tested on: OVCAR-4 ovarian
OVCAR-5 ovarian = tested on: OVCAR-5 ovarian
OVCAR-8 ovarian = tested on: OVCAR-8 ovarian
PC-3 prostate = tested on: PC-3 prostate
RPMI-8226 leukemia = tested on: RPMI-8226 leukemia
SF-268 CNS = tested on: SF-268 CNS
SF-295 CNS = tested on: SF-295 CNS
SF-539 CNS = tested on: SF-539 CNS
SK-MEL-2 melanoma = tested on: SK-MEL-2 melanoma
SK-MEL-28 melanoma = tested on: SK-MEL-28 melanoma
SK-MEL-5 melanoma = tested on: SK-MEL-5 melanoma
SK-OV-3 ovarian = tested on: SK-OV-3 ovarian
SN12C renal = tested on: SN12C renal
SNB-19 CNS = tested on: SNB-19 CNS
SNB-75 CNS = tested on: SNB-75 CNS
SW-620 colon = tested on: SW-620 colon
T-47D breast = tested on: T-47D breast
TK-10 renal = tested on: TK-10 renal
U251 CNS = tested on: U251 CNS
UACC-257 melanoma = tested on: UACC-257 melanoma
UACC-62 melanoma = tested on: UACC-62 melanoma
UO-31 renal = tested on: UO-31 renal
HOP-62 NSCLC = tested on: HOP-62 NSCLC
RXF 393 renal = tested on: RXF 393 renal
SR leukemia = tested on: SR leukemia

## COc1c(OC)c(OC)c(C(=O)/C=C/c2ccccc2)c(OC)c1OC
786-0 renal
  TGI: 21.6 µM
A498 renal
  TGI: 17.5 µM
A549 NSCLC
  TGI: 46.2 µM
ACHN renal
  TGI: 28.9 µM
BT-549 breast
  TGI: 18.1 µM
CAKI-1 renal
  TGI: 28.4 µM
CCRF-CEM leukemia
  TGI: 18.1 µM
COLO 205 colon
  TGI: 31.9 µM
DU-145 prostate
  TGI: 12 µM
EKVX NSCLC
  TGI: 35.5 µM
HCC-2998 colon
  TGI: 29.7 µM
HCT-116 colon
  TGI: 18.5 µM
HCT-15 colon
  TGI: 23 µM
HL-60(TB) leukemia
  TGI: 38.2 µM
HOP-92 NSCLC
  TGI: 17.9 µM
HS 578T breast
  TGI: > 100 µM
HT29 colon
  TGI: 15.1 µM
IGROV1 ovarian
  TGI: 27.9 µM
K-562 leukemia
  TGI: 55.5 µM
KM12 colon
  TGI: 16.8 µM
LOX IMVI melanoma
  TGI: 36.7 µM
M14 melanoma
  TGI: 36.7 µM
MALME-3M melanoma
  TGI: 30.1 µM
MCF7 breast
  TGI: 24.1 µM
MDA-MB-231 breast
  TGI: 35.6 µM
MDA-MB-435
  TGI: 19.7 µM
MDA-N
  TGI: 70.2 µM
MOLT-4 leukemia
  TGI: 36.3 µM
NCI-H226 lung
  TGI: 38.4 µM
NCI-H23 lung
  TGI: 26.8 µM
NCI-H460 lung
  TGI: 21.9 µM
NCI-H522 lung
  TGI: 14.7 µM
NCI/ADR-RES ovarian
  TGI: 55.1 µM
OVCAR-3 ovarian
  TGI: 25.1 µM
OVCAR-4 ovarian
  TGI: 30.7 µM
OVCAR-5 ovarian
  TGI: 36.9 µM
OVCAR-8 ovarian
  TGI: 34 µM
PC-3 prostate
  TGI: 31.1 µM
RPMI-8226 leukemia
  TGI: 20.3 µM
SF-268 CNS
  TGI: 22.1 µM
SF-295 CNS
  TGI: 29.9 µM
SF-539 CNS
  TGI: 30.9 µM
SK-MEL-2 melanoma
  TGI: 45 µM
SK-MEL-28 melanoma
  TGI: 27.3 µM
SK-MEL-5 melanoma
  TGI: 26.3 µM
SK-OV-3 ovarian
  TGI: 32.9 µM
SN12C renal
  TGI: 26.9 µM
SNB-19 CNS
  TGI: 25.1 µM
SNB-75 CNS
  TGI: 23.1 µM
SW-620 colon
  TGI: 31 µM
T-47D breast
  TGI: 23.7 µM
TK-10 renal
  TGI: 26.4 µM
U251 CNS
  TGI: 20.5 µM
UACC-257 melanoma
  TGI: 34.3 µM
UACC-62 melanoma
  TGI: 24.2 µM
UO-31 renal
  TGI: 22.2 µM

## CC1=CC(=O)[C@@H](O)[C@]2(C)[C@H]3[C@@]4(O)OC[C@]35[C@H]([C@@H](C)[C@H]4O)[C@@H](O)C(=O)O[C@@H]5C[C@@H]12
786-0 renal
  TGI: 2.13 µM
A498 renal
  TGI: 4.45 µM
A549 NSCLC
  TGI: 15.5 µM
ACHN renal
  TGI: 5.4 µM
BT-549 breast
  TGI: 5.17 µM
CAKI-1 renal
  TGI: 5.3 µM
CCRF-CEM leukemia
  TGI: 1.45 µM
COLO 205 colon
  TGI: 2.45 µM
DU-145 prostate
  TGI: 1.69 µM
EKVX NSCLC
  TGI: 6.31 µM
HCC-2998 colon
  TGI: 2.51 µM
HCT-116 colon
  TGI: 0.288 µM
HCT-15 colon
  TGI: 2.48 µM
HOP-62 NSCLC
  TGI: 1.08 µM
HOP-92 NSCLC
  TGI: 2.51 µM
HS 578T breast
  TGI: 1.19 µM
IGROV1 ovarian
  TGI: 3.42 µM
K-562 leukemia
  TGI: > 100 µM
KM12 colon
  TGI: 1.72 µM
LOX IMVI melanoma
  TGI: 0.62 µM
M14 melanoma
  TGI: 1.04 µM
MALME-3M melanoma
  TGI: 0.445 µM
MCF7 breast
  TGI: 0.546 µM
MDA-MB-231 breast
  TGI: 1.44 µM
MDA-MB-435
  TGI: 1.73 µM
MDA-N
  TGI: 0.869 µM
NCI-H226 lung
  TGI: 0.694 µM
NCI-H23 lung
  TGI: 1.7 µM
NCI-H460 lung
  TGI: 4.85 µM
NCI-H522 lung
  TGI: 0.7 µM
NCI/ADR-RES ovarian
  TGI: 22.6 µM
OVCAR-3 ovarian
  TGI: 2.11 µM
OVCAR-4 ovarian
  TGI: 6.66 µM
OVCAR-5 ovarian
  TGI: 5.4 µM
OVCAR-8 ovarian
  TGI: 5.82 µM
PC-3 prostate
  TGI: 1.67 µM
RPMI-8226 leukemia
  TGI: > 100 µM
RXF 393 renal
  TGI: 4.46 µM
SF-268 CNS
  TGI: 0.778 µM
SF-295 CNS
  TGI: 3.7 µM
SF-539 CNS
  TGI: 0.261 µM
SK-MEL-2 melanoma
  TGI: 1.16 µM
SK-MEL-28 melanoma
  TGI: 0.691 µM
SK-MEL-5 melanoma
  TGI: 0.369 µM
SK-OV-3 ovarian
  TGI: > 20.5 µM
SNB-19 CNS
  TGI: 3.69 µM
SNB-75 CNS
  TGI: 0.759 µM
SR leukemia
  TGI: > 100 µM
SW-620 colon
  TGI: 6.78 µM
TK-10 renal
  TGI: 7.76 µM
U251 CNS
  TGI: 0.379 µM
UACC-257 melanoma
  TGI: 1.77 µM
UACC-62 melanoma
  TGI: 6.29 µM
UO-31 renal
  TGI: 6.71 µM

## CN(C)/C=N/n1c2ccccc2c2ccccc21
786-0 renal
  TGI: > 100 µM
A498 renal
  TGI: > 100 µM
A549 NSCLC
  TGI: > 100 µM
ACHN renal
  TGI: > 100 µM
CAKI-1 renal
  TGI: 75.8 µM
CCRF-CEM leukemia
  TGI: > 100 µM
COLO 205 colon
  TGI: > 100 µM
DU-145 prostate
  TGI: > 100 µM
EKVX NSCLC
  TGI: > 100 µM
HCC-2998 colon
  TGI: > 100 µM
HCT-116 colon
  TGI: > 100 µM
HCT-15 colon
  TGI: > 100 µM
HL-60(TB) leukemia
  TGI: > 100 µM
HOP-62 NSCLC
  TGI: > 100 µM
HS 578T breast
  TGI: > 100 µM
HT29 colon
  TGI: > 100 µM
IGROV1 ovarian
  TGI: > 100 µM
K-562 leukemia
  TGI: > 100 µM
KM12 colon
  TGI: > 100 µM
LOX IMVI melanoma
  TGI: > 100 µM
M14 melanoma
  TGI: > 100 µM
MALME-3M melanoma
  TGI: > 100 µM
MCF7 breast
  TGI: > 100 µM
MDA-MB-231 breast
  TGI: > 100 µM
MDA-MB-435
  TGI: > 100 µM
MDA-N
  TGI: > 100 µM
MOLT-4 leukemia
  TGI: > 100 µM
NCI-H226 lung
  TGI: > 100 µM
NCI-H23 lung
  TGI: > 100 µM
NCI-H460 lung
  TGI: > 100 µM
NCI-H522 lung
  TGI: > 100 µM
NCI/ADR-RES ovarian
  TGI: > 100 µM
OVCAR-3 ovarian
  TGI: > 100 µM
OVCAR-4 ovarian
  TGI: > 100 µM
OVCAR-5 ovarian
  TGI: > 100 µM
OVCAR-8 ovarian
  TGI: > 100 µM
PC-3 prostate
  TGI: > 100 µM
RPMI-8226 leukemia
  TGI: > 100 µM
RXF 393 renal
  TGI: > 100 µM
SF-268 CNS
  TGI: > 100 µM
SF-295 CNS
  TGI: > 100 µM
SF-539 CNS
  TGI: > 100 µM
SK-MEL-2 melanoma
  TGI: > 100 µM
SK-MEL-28 melanoma
  TGI: > 100 µM
SK-MEL-5 melanoma
  TGI: > 100 µM
SK-OV-3 ovarian
  TGI: > 100 µM
SN12C renal
  TGI: > 100 µM
SNB-19 CNS
  TGI: > 100 µM
SNB-75 CNS
  TGI: > 100 µM
SR leukemia
  TGI: > 100 µM
SW-620 colon
  TGI: > 100 µM
T-47D breast
  TGI: > 100 µM
TK-10 renal
  TGI: > 100 µM
U251 CNS
  TGI: > 100 µM
UACC-257 melanoma
  TGI: > 100 µM
UACC-62 melanoma
  TGI: > 100 µM
UO-31 renal
  TGI: > 100 µM
